Test results taken from EP0363230A2, “Use of acetogenins in therapy as antiparasitic substances” (LA[…] Société anonyme dite:, priority 1988, dated 1990).

Columns and labels:
cellules KB [1] = assay: Cytostatic effect on KB cells (crystal violet, optical density at 590 nm); format: cell-based, humain; details: 3 days at 37°C, optical density at 590 nm versus control, ***/** = statistical significance
Source text: (§1) La toxicité a été évaluée par la mesure de la cytotoxicité et de la cytostase vis-à-vis de cellules KB selon une technique usuelle. L'activité antiparasitaire a été déterminée in vitro sur Leishmania donovani, promastigote selon un protocole opératoire décrit ci-après.
(§2) On fait appel à des cellules épithéliales KB provenant d'un carcinome oral épidermoïde humain obtenues selon H. EAGLE "Propagation in a fluid medium of a human epidermoid carcinoma strain KB (21811)", Proc. Soc. Exp. Biol. and Med., 89, pages 362-364, (1955) et commercialisées par la Société dite EUROBIO.
(§3) Le milieu de culture utilisé avait la composition suivante
(§4) L'ensemencement se fait en boîte de 12 cupules contenant chacune 2 ml du milieu. Le produit à tester est mis en solution dans le diméthylsulfoxyde (DMSO) et dilué par du milieu de culture. La solution ainsi obtenue est ajoutée au milieu de culture pour obtenir des concentrations en produit à tester de 5, 10, 20, 30, 40, et […] par ml de milieu. Les cellules sont ajoutées en même temps que la solution du produit à tester.
(§5) Le milieu ensemencé et ainsi traité est mis à l'étuve à 37°C pendant 3 jours. Après fixation des cellules par la méthode dite au cristal violet [selon la technique de R.J. GILLIER et al., "Determination of cell number in monolayer cultures", Analytical Biochemistry 159, pages 109-113, (1986)]. […]

cellules KB [2] = assay: Cytotoxic effect on KB cells (dose lethal for 100 % of cells); format: cell-based, humain; details: 3 days at 37°C, dose lethal for 100 % of cells (complete disappearance of the cell layer)
Source text: as §1, §2, §3, §4, §5

[3] = system: Leishmania donovani, promastigote; assay: Anti-Leishmania effect in vitro (growth inhibition of promastigotes, cell count); format: cell-based; details: for inhibition (I%): growth inhibition of Leishmania donovani promastigotes; for DI-50: dose of 50 % inhibition, 26°C; for DI-50 / DImax: Leishmania donovani LRC L52 promastigotes, 3 to 4 days; for DImax: dose of maximal measured inhibition
Procedure: as §1
On fait appel à une souche de Lieshmania donovani LRC L52 (de la collection OMS).
as §3
L'ensemencement se fait dans des boîtes de 24 cupules contenant chacune 500 µl de milieu. Le milieu est ensemencé par 500 000 promastigotes par cupule puis placé dans une étuve à CO₂ à 26°C pendant 3 à 4 heures.
Le produit à tester est ajouté en solution dans le DMSO à des concentrations variables sous un volume de 25 µl par cupule. Les boîtes ensemencées et traitées par le produit sont laissées à l'étuve pendant 3 à 4 jours.
La mesure de l'activité est effectuée par comptage des cellules à l'hémocytomètre, le nombre obtenu étant rapporté à un témoin dépourvu de produit (100 % de cellules, soit 0 % d'inhibition de croissance). Chaque manipulation est effectuée 2 fois.
Les résultats obtenus sont également consignés dans le tableau I ci-après où sont données les doses d'inhibition à 50 % (DI-50) et les doses d'inhibition maximale mesurées (DImax).

| Compound | Cytostase (cellules KB [1]) | Cytotoxicité (cellules KB [2]) | inhibition (I%) ([3]; DI = 20 µg.ml) | DI-50 [3] | DImax [3] | inhibition (I%) ([3]; DI = 10 µg.ml) |
| --- | --- | --- | --- | --- | --- | --- |
| CCCCCCCCCC(O)CC1CCC(C2CCC(C(O)CCCCCCCCCCC(O)CCC3=CC(C)OC3=O)O2)O1 (stereo not shown) [Ex 8, 2-[5-(2-hydroxyundécyl)-2-tétrahydrofurannyl]-5-[14-(5-méthyl-2-oxo-2,5-dihydro-3-furannyl)-1,12-dihydroxytétradécyl]-tétrahydrofuranne] | 20** µg.ml | 40 µg·mL | 11% | >20 µg·mL | 20 µg·mL | – |
| CCCCCCCCCC(O)CC1CCC(C2CCC(C(O)CCCC(O)CCCCCCC(O)CCC3=CC(C)OC3=O)O2)O1 (stereo not shown) [Ex 1, 2-[5-(2-hydroxyundécyl)-2-tétrahydrofurannyl]-5-[14-(5-méthyl-2-oxo-2,5-dihydro-3-furannyl)-1,5,12-trihydroxytétradécyl]-tétrahydrofuranne] | 20*** µg.ml | 40 µg·mL | – | 2,5 µg.ml | 10 µg·mL | 100% |
